The values below come from PubChem BioAssay AID1996.

Structures are written as SMILES. In brackets after ≈: the same amount, converted by molar mass.

The conditions of the series: buffer; pH 7.4; 200.0 µM.
In general, solubility (kinetic) refers to the concentration staying in solution when a stock, usually in DMSO, is diluted into the medium. `Cc1cccc(OCC(=O)NCC(=O)N/N=C/c2cccnc2)c1` showed a kinetic solubility above 49 µg/mL.
With `CCN(CC)c1ccc(NC(=O)Nc2cccc3ccccc23)cc1` the figure was 0.6 µg/mL (≈ 1.8 µM).
Then `CC1(C)CC(NC(=O)c2ccc(-c3ccc([N+](=O)[O-])cc3)o2)CC(C)(C)N1`, with 41.1 µg/mL (≈ 111 µM); and `O=[N+]([O-])c1ccc(N2CCc3ccccc3C2)cc1`, with 0.9 µg/mL (≈ 3.54 µM).
With `CCNC(=O)c1ccccc1CCc1ccccc1` the figure was 32.7 µg/mL (≈ 129 µM); with `NC(=O)COC(=O)CCSc1ccc(Cl)cc1`, 30.2 µg/mL (≈ 110 µM).
Compound `Cc1ccc(CN(C)C(=O)c2cc(S(=O)(=O)N3CCOCC3)ccc2F)o1` had a solubility (kinetic) above 59.5 µg/mL.
With `COc1cc(C)ccc1OC(C)C(=O)Nc1ccc(N2CCCCC2)cc1` (stereo unspecified) the figure was 2.7 µg/mL (≈ 7.33 µM); with `NC(=O)Nc1ccc(Cl)cc1`, above 25.6 µg/mL; with `CCOC(=O)CNC(=O)CSc1nc(-c2ccc(C)cc2)ns1`, 11.1 µg/mL (≈ 31.6 µM).
With `CC1=NC(C)(C)Cc2cc(C)c(C)cc21.Cl` the figure was above 35.7 µg/mL.
Then `CC(=O)c1nc(-c2ccccc2)sc1C`, with 12.7 µg/mL (≈ 58.4 µM).
In the case of `CC(C)C(NC(=O)C(C)N1C(=O)c2ccccc2C1=O)c1ccccc1` (stereo unspecified), the kinetic solubility was above 52.6 µg/mL.
With `CCCc1cc(C(=O)Nc2ccc(CC)cc2)no1` the figure was 1.4 µg/mL (≈ 5.42 µM).
In the case of `N#CCCN(Cc1cccs1)C(=O)Nc1ccccc1`, the solubility (kinetic) amounted to 41.1 µg/mL (≈ 144 µM).
In turn, `Cc1noc(C)c1COc1ccccc1C(=O)NC1CCC(C)CC1` (stereo unspecified) registered a solubility (kinetic) above 51.4 µg/mL.
Turning to `CN=C(NC1CCCCC1)c1ccc([N+](=O)[O-])cc1`, the solubility (kinetic) is above 39.2 µg/mL.
With `COCC(=O)Nc1nc(-c2ccc(-c3ccccc3)cc2)cs1` the figure was 4.4 µg/mL (≈ 13.6 µM); with `COc1cccc(NC(=O)c2cccc(C(=O)Nc3cccc(OC)c3)c2)c1`, below 0.4 µg/mL; with `O=C(CN1C(=O)c2ccccc2S1(=O)=O)NCCc1ccc(F)cc1`, above 54.4 µg/mL.
With `Cn1cccc1C(=O)OCC(=O)NCc1ccc2c(c1)OCO2` the figure was above 47.4 µg/mL.
With `Cc1cc2c(cc1S(=O)(=O)N(C)c1ccccc1)NC(=O)CO2` the figure was 3.3 µg/mL (≈ 9.93 µM); with `Cc1cc(OCC(O)CN2CCCC2)ccc1C(C)C.Cl` (stereo unspecified), 39.1 µg/mL.
The compound `O=C(CNC(=O)c1ccco1)Nc1cccc(Cl)c1` registered a kinetic solubility of 18.9 µg/mL (≈ 67.8 µM). This solubility kinetic lies about 2.1-fold lower than the previous one.
Then `c1ccc2c(c1)COC(CNC1CCCCC1)OC2`, with above 39.2 µg/mL; and `CSc1ncccc1C(=O)OCC(=O)NCc1cccs1`, with 35.8 µg/mL (≈ 111 µM).
Then `S=C(NC1CCCCC1)N1CCn2cccc2C1c1ccncc1` (stereo unspecified), with 36.1 µg/mL (≈ 106 µM); and `COc1ccc(N2C(=O)CC(c3ccc([N+](=O)[O-])cc3)C2=O)cc1` (stereo unspecified), with 14.9 µg/mL (≈ 45.7 µM).
The compound `Cc1nc2ccccc2c2oc(C(=O)N3CC(C)CC(C)C3)cc12` (stereo unspecified) registered a kinetic solubility of 35.5 µg/mL (≈ 110 µM).
As to `COC(=O)C1=C(N)Oc2cc(C)[nH]c(=O)c2C1c1ccccc1OC` (stereo unspecified), the solubility (kinetic) came to 46.5 µg/mL (≈ 136 µM).
As for `COc1cc(/C=C\C(=O)O)cc(S(=O)(=O)N2CCCCCC2)c1OC`, the solubility (kinetic) is 52.8 µg/mL (≈ 143 µM). The solubility kinetic values of the last two compounds are within 1.5-fold of each other.
As for `Cn1ccnc1Sc1ccc(C(N)=O)cc1[N+](=O)[O-]`, the solubility (kinetic) came out at 38.7 µg/mL (≈ 139 µM).
With `CCc1ccc(/C=C2\SC(N3CCCC3)=NC2=O)cc1` the figure was 12.8 µg/mL (≈ 44.7 µM); with `Cc1cccc(N2CC(O)(c3cccs3)[N+]3=C2CCCCC3)c1.[Br-]` (stereo unspecified), above 61.1 µg/mL.
Turning to `COc1cccc(NC(=O)Nc2ccc3c(c2)OCO3)c1`, the kinetic solubility is 3.7 µg/mL (≈ 12.9 µM).
Then `Cc1ccc(NC(=O)CCN2C(=O)c3ccccc3C2=O)c(C)c1`, with 4.9 µg/mL (≈ 15.2 µM).
Then `CCOC(=O)C1=C(C)N(CC(C)C)C(=O)/C1=C\c1cccs1`, with below 0.7 µg/mL; and `Cl.c1cnc(N2CCNCC2)nc1`, with above 35.6 µg/mL; and `O=C(O)CSc1nc2ccccc2n1-c1ccccc1`, with above 42.6 µg/mL.
`Cc1ccc(S(=O)(=O)NC(=O)Nc2c(C)cccc2C)cc1` came in with a kinetic solubility of 33.6 µg/mL (≈ 106 µM).
Then `Cc1nc2c(cnn2-c2ccccc2)c(=O)[nH]1`, with above 33.9 µg/mL; and `COc1ccc(NS(=O)(=O)c2cccc(C(=O)N3CCN(C(=O)c4ccco4)CC3)c2)cc1`, with 68.1 µg/mL (≈ 145 µM); and `NS(=O)(=O)c1ccc(SCc2ccccc2)nc1`, with 10.4 µg/mL (≈ 37.1 µM).
Then `OCCN1CCN(c2ncnc3sc4c(c23)CCCC4)CC1`, with above 47.8 µg/mL; and `O=Cc1cn(CC(O)CN2CCCCC2)c2ccccc12` (stereo unspecified), with above 43 µg/mL.
With `CCCC12CN3CC(C)(CN(C1)C3c1cccs1)C2=O` (stereo unspecified) the figure was 39.1 µg/mL (≈ 135 µM); with `Cc1cccc(C2NC(c3cccc(C)c3)C(C)C(=O)C2C)c1` (stereo unspecified), 0.8 µg/mL (≈ 2.6 µM).
Regarding `O=C1c2ccsc2SCCN1Cc1ccc(F)cc1`, the kinetic solubility amounted to 40.5 µg/mL (≈ 138 µM).
Then `CCOc1ccccc1C(=O)NCCNC(=O)c1ccccc1OCC`, with 40.6 µg/mL (≈ 114 µM); and `CC(=O)Nc1ccc(NC(=O)COC(=O)c2ccc(S(=O)(=O)NCc3ccco3)cc2)cc1`, with 8.9 µg/mL (≈ 18.9 µM); and `Cc1ccc(OCC(=O)N2CCN(C(=O)c3cccc(F)c3)CC2)cc1`, with above 53.5 µg/mL.
